Data as given in publication PMC10350924, “Design, Synthesis, and Pharmacological Characterization of a Potent Soluble Epoxide Hydrolase Inhibitor for the Treatment of Acute Pancreatitis” (Journal of Medicinal Chemistry, 2023).

Test system: EETs, DHETs and HETEs in pancreas homogenates
Test: Targeted metabololipidomics of pancreas homogenates (cerulein AP mice)
Type: in vivo
Conditions: not statistically significant
Description: The extraction of targeted lipid mediators from pancreas was performed as follows: tissues were lyophilized and weighted, 10 mg was homogenized and deproteinized with 500 μL of ice-cold 10% v/v MeOH spiked with labeled standards, and subsequently diluted with 500 μL of phosphate-buffered saline (PBS). Samples were then loaded on solid-phase extraction cartridges, Strata-X reversed-phase SPE columns (100 mg/3 mL) (Phenomenex, Bologna, Italy). Cartridges were conditioned with 3 mL of MeOH and equilibrated with 3 mL of ddH2O. Following loading, washed with 1 mL of 10% MeOH v/v, and finally eluted with 1.5 mL of MeOH. Eluted samples were dried with a SpeedVac (Savant, Thermo Scientific, Milan, Italy) and dissolved prior to UHPLC-MS/MS analyses in 50 μL of UHPLC solvent A.
The analyses were acquired using a Shimadzu Nexera UHPLC (Kyoto, Japan) coupled online to a triple quadrupole LCMS-8050 (Shimadzu) equipped with an electrospray ionization (ESI) source operating in ESI negative mode. The separation was performed on a Kinetex EVO C18 150 mm × 2.1 mm, 2.6 μm (100 Å) (Phenomenex, Bologna, Italy). The flow rate was set to 0.4 mL/min, and the column oven was set at 40 °C. The mobile phases were, respectively: (A) ACN/H2O 45:55 acidified with 0.02% CH3COOH v/v and (B) ACN/IPA 50:50. The following gradient was used: 0 min, 0%B, 0–12 min 60%B, 12.10 min, 60–99%B, 12.10–13.05 isocratic to 99% B; returning to 0% B in 0.1. MS source parameters: desolvation Line (DL) 250 °C, interface: 300 °C, block heater 350 °C, nebulizing (N2), drying (N2), and heating (Air) gas pressures: 3, 10, 10 L/min. Each analyte was optimized by infusing standard solution at 0.2 mg/mL, multiple reaction monitoring (MRM) mode was used. Detailed MRM parameters are available in Table S3. […]

**Q.** Which “change of DHET levels with respect to vehicle” value does the source give for CC(C)c1ccc(Cn2ccc3cc(NC(=O)NCC45C[C@H]6C[C@@H](C4)C[C@@H](C5)C6)ccc32)cc1 [Compound 28, 1-(((3R,5R,7R)-Adamantan-1-yl)methyl)-3-(1-(4-isopropylbenzyl)-1H-indol-5-yl)urea] here?
**A.** −31.5%

**Q.** What about the “change of EETs levels with respect to vehicle” value of the same compound?
**A.** +21.9%

**Q.** And the “change of HETEs levels (15-HETE, 12-HETE, 5-HETE) with respect to vehicle” value?
**A.** −13.4%
